Data as given in patent US11826453B2, “Hair care composition comprising piroctone olamine” (Conopco, Inc., priority 2019, dated 2023).

Assay: Octopirox degradation under cool white light (LCMS / UPLC-UV)
Format: physicochemical
Settings: 24 hours
Experimental: The cool white light (CWL) irradiation was carried out in an X-Rite (Macbeth) Spectra Light III chamber. CWL mode was chosen which provides stable irradiation mimicking the indoor light. The intensity of light was fixed which estimated at 6 μw/cm2 for UVA and 1.5 μw/cm^2 for UVB. The chamber temperature was equal to the room temperature (20±2° C.). The sample was placed in a line close to the center of the chamber. After 24 hours, the sample was analyzed by LCMS (Water UPLC coupled with Quatro Micro MS), by quantitatively measured using UPLC-UV analysis following DPS derivatization.
The separation was performed by a UPLC BEH C18 column and the mobile phase was acetonitrile/water (60/40, 0.1% formic acid) in isocratic elution. Electrospray ionization in positive mode was applied for MS scan.

quantity of Octopirox® after cool white light (cool white light (indoor light; 6 μw/cm2 UVA, 1.5 μw/cm^2 UVB), 20±2° C.): reduced | compound of formula 1 in the degradation product (cool white light, LCMS): no compound of formula 1 can be detected
SMILES: Cc1cc(CC(C)CC(C)(C)C)n(O)c(=O)c1.NCCO (centres unmarked) [Octopirox®, Piroctone olamine]
